Experimental data reported in paper PMC6152211 (Molecules : A Journal of Synthetic Chemistry and Natural …, 2017).
Read-outs that look alike come from different tables or passages of the source.

Assays:
[1] = dog plasma, cited from earlier work
[2] = rat plasma, cited from earlier work; for share of AUC in plasma: metabolite of sorafenib
[3] = human plasma, cited from earlier work
CYP3A4 = conditions: cited from earlier work
CYP1A2 = conditions: cited from earlier work
[4] = Phase I CYP3A4 metabolism study: sorafenib pharmacokinetics after pretreatment with grapefruit juice or ketoconazole (Part B); conditions: for F (oral bioavailability) / CL: then single sorafenib 10 mg/kg p.o., mean ± SD, n = 6; for F (oral bioavailability): compared to Group A1 (3 mg/kg, i.v.), rat
rat liver [5] = test: Hepatotoxicity study: serum AST and ALT levels (Part D); type: in vivo
Protocol: (§1) Hepatotoxicity and histopathological experiments were performed on 42 jugular-catheterized rats that were randomly divided into Groups D1–D7 containing six animals, as described above. In the “Part D” study, an aqueous solution of the LDXGT formulation and sorafenib were each administered to rats by oral gavage. Blood samples were collected from the jugular vein at 0, 0.5 and 1 h after dosing for the […] group. […] Serum was obtained by centrifugation. The levels of the AST and ALT enzymes were determined using an automatic biochemical analysis. After blood sampling, the livers were dissected from the rats in each group and prepared using a series of processes.

[6] = Herbal drug pharmacokinetic interaction study of sorafenib in rat plasma (Part A); type: in vivo, Male Sprague-Dawley rats; conditions: for bioavailability: read-out: F (oral bioavailability)
Excerpt: The jugular-catheterized rats were randomly divided into four groups, Groups A1–A4, as described above. […] […] […] Data from these samples were used to construct pharmacokinetic profiles by plotting drug concentrations versus times.

rat liver [7] = test: Histopathological analysis of liver slices, H&E staining (Part D); type: in vivo
Protocol: Histopathological analyses were performed to quantitatively evaluate the degree of liver inflammation in our experimental model using a morphometric examination of liver sections and Modified Hepatic Activity Index Grading (Modified HAI Grading; Necroinflammatory Score).
as §1

[8] = Group A2: sorafenib 10 mg/kg, p.o. alone, rat plasma, mean ± SD, n = 6
[9] = Group A4: LDXGT formulation 2 g/kg/day p.o. for 5 consecutive days, then single sorafenib 10 mg/kg p.o., rat plasma, mean ± SD, n = 6
[10] = male, Sprague-Dawley, rat, plasma, iv, 3 mg/kg, Group A1: sorafenib 3 mg/kg, i.v., rat plasma, mean ± SD, n = 6
[11] = male, Sprague-Dawley, rat, plasma, po, 10 mg/kg, Group A2: sorafenib 10 mg/kg, p.o. alone, rat plasma, mean ± SD, n = 6
[12] = male, Sprague-Dawley, rat, plasma, po, 10 mg/kg, Group A3: LDXGT formulation 1 g/kg/day p.o. for 5 consecutive days, then single sorafenib 10 mg/kg p.o., rat plasma, mean ± SD, n = 6
[13] = male, Sprague-Dawley, rat, plasma, po, 10 mg/kg, Group A4: LDXGT formulation 2 g/kg/day p.o. for 5 consecutive days, then single sorafenib 10 mg/kg p.o., rat plasma, mean ± SD, n = 6

## CNC(=O)c1cc(Oc2ccc(NC(=O)Nc3ccc(Cl)c(C(F)(F)F)c3)cc2)cc[n+]1[O-] [M-2]
[1]
  presence of the metabolite in plasma: absent
[2]
  share of AUC in plasma: 0.9 % of AUC
[3]; metabolite of sorafenib
  share of AUC in plasma: 16.7 % of AUC

## O=C(Nc1ccc(Oc2ccnc(C(=O)NCO)c2)cc1)Nc1ccc(Cl)c(C(F)(F)F)c1 [M-3]
[1]; metabolite of sorafenib
  share of AUC in plasma: 15.6 % of AUC
[2]
  share of AUC in plasma: 12.1 % of AUC

## NC(=O)c1cc(Oc2ccc(NC(=O)Nc3ccc(Cl)c(C(F)(F)F)c3)cc2)ccn1 [M-4]
[1]
  presence of the metabolite in plasma: detected
[2]
  presence of the metabolite in plasma: detected
[3]
  presence of the metabolite in plasma: detected

## O=c1cc(-c2ccccc2)oc2cc(O)c(O)c(O)c12 [baicalein]
CYP3A4
  effect on CYP3A4 enzyme activity: inhibited

## O=C(O)[C@H]1O[C@@H](Oc2cc3oc(-c4ccccc4)cc(=O)c3c(O)c2O)[C@H](O)[C@@H](O)[C@@H]1O [baicalin]
CYP1A2; in vitro, baicalin in human liver microsomes
  effect on CYP1A2 activity: inhibits

## C=C[C@@H]1C2=CCOC(=O)C2=CO[C@H]1O[C@@H]1O[C@H](CO)[C@@H](O)[C@H](O)[C@H]1O [gentiopicroside]
CYP3A4
  effect on CYP3A4 enzyme activity: significant increase
CYP1A2; microsomes
  effect on CYP1A2 activity: significant increase

## CC(=O)N1CCN(c2ccc(OCC3COC(Cn4ccnc4)(c4ccc(Cl)cc4Cl)O3)cc2)CC1 (stereo not drawn) [ketoconazole]
[4]; ketoconazole 400 mg/kg/day, sorafenib 10 mg/kg p.o., rats
  effect on the pharmacokinetics of a single oral sorafenib dose: did not affect

## CNC(=O)c1cc(Oc2ccc(NC(=O)Nc3ccc(Cl)c(C(F)(F)F)c3)cc2)ccn1 [sorafenib, Sorafenib]
Rat liver [5]; repeated sorafenib 10 mg/kg for 2 weeks alone or combined with LDXGT, Groups D5–D7
  liver function (AST and ALT): marked elevation
Rat liver [5]; single sorafenib dose 10 mg/kg p.o. alone or after LDXGT pretreatment, among Groups D2–D4, 0, 3 and 6 h after dosing
  liver function (AST and ALT): No significant difference
[4]; Group B1 (GFJ3): grapefruit juice 3 mL/day p.o. for 5 consecutive days
  F (oral bioavailability): 45 ± 11%
[4]; Group B1 (GFJ3): grapefruit juice 3 mL/day p.o. for 5 consecutive days, rat plasma
  CL: 2.0 ± 0.4 mL/min/kg
[4]; Group B2 (GFJ6): grapefruit juice 6 mL/day p.o. for 5 consecutive days
  F (oral bioavailability): 39 ± 14%
[4]; Group B2 (GFJ6): grapefruit juice 6 mL/day p.o. for 5 consecutive days, rat plasma
  CL: 2.6 ± 1.1 mL/min/kg
[4]; Group B4 (KCZ40): ketoconazole 40 mg/kg/day p.o. for 5 consecutive days
  F (oral bioavailability): 42 ± 14%
[4]; Group B4 (KCZ40): ketoconazole 40 mg/kg/day p.o. for 5 consecutive days, rat plasma
  CL: 2.3 ± 0.8 mL/min/kg
[4]; each of Groups A2, B1–B4 (sorafenib 10 mg/kg p.o. alone or after grapefruit juice or ketoconazole), rat plasma, approximately
  time after administration at which maximal plasma concentrations were achieved: 3 to 8 h
[4]; male, Sprague-Dawley, in vivo, po, 10 mg/kg
  bioavailability: 52 ± 4.3%
[6]; Group A2: single sorafenib 10 mg/kg, p.o., rat plasma, approximately
  time after administration at which maximal plasma concentrations (Cmax) were observed: 3 to 8 h
[6]; [8]
  CL: 1.8 ± 0.7 mL/min/kg
  Vss: 1.564 ± 0.477 L/kg
[6]; Group A3: LDXGT formulation 1 g/kg/day p.o. for 5 consecutive days, then single sorafenib 10 mg/kg p.o., rat plasma, mean ± SD, n = 6
  CL: 2.1 ± 0.8 mL/min/kg
[6]; Group A4: LDXGT formulation 2 g/kg/day p.o. for 5 consecutive days, then single sorafenib 10 mg/kg p.o., compared to Group A1 (3 mg/kg, i.v.), rat, mean ± SD, n = 6
  F (oral bioavailability): 49 ± 5.0%
[6]; [9]
  CL: 1.8 ± 0.2 mL/min/kg
  Vss: 1.565 ± 0.231 L/kg
[6]; each of Groups A2–A4 (sorafenib 10 mg/kg p.o. alone or after LDXGT 1 or 2 g/kg/day), rat plasma, approximately
  time after administration at which maximal plasma concentrations were reached: 3 to 8 h
[6]; male, Sprague-Dawley, rat, plasma, intravenous, 3 mg/kg
  concentration at 8 min: 2840 ng/mL
[6]; male, Sprague-Dawley, rat, plasma, iv, 3 mg/kg
  clearance: 1.1 ± 0.4 mL/min/kg
[6]; [10]
  AUC: 56000 ng·h/mL
  Cmax: 4600 ± 200 ng/mL
  half-life: 8.32 ± 4.58 h
[6]; male, Sprague-Dawley, rat, plasma, iv, 3 mg/kg, read-out: Vss
  Vd: 1.19 ± 0.129 L/kg
[6]; male, Sprague-Dawley, rat, plasma, po, 10 mg/kg, Group A2: sorafenib 10 mg/kg, p.o. alone, compared to Group A1 (3 mg/kg, i.v.), rat, mean ± SD, n = 6
  bioavailability: 56 ± 20%
[6]; [11]
  AUC: 104000 ng·h/mL
  Cmax: 5000 ± 1400 ng/mL
  Tmax: 7 h
  half-life: 10.5 ± 1.97 h
[6]; [12]
  AUC: 94200 ng·h/mL
  Cmax: 4800 ± 1000 ng/mL
  Tmax: 6.33 h
  half-life: 10.8 ± 3.2 h
[6]; [13]
  AUC: 91500 ng·h/mL
  Cmax: 4800 ± 700 ng/mL
  Tmax: 5.17 h
  half-life: 9.9 ± 2.55 h
[6]; male, Sprague-Dawley, rat, plasma, po, 10 mg/kg
  bioavailability: 50 ± 24%
[6]; pilot study, single dose 10, 20 and 40 mg/kg, p.o., rat plasma
  pharmacokinetic properties across doses (concentration versus time profile): dose-dependent
Rat liver [7]; repeated administration groups, Groups D5–D7 (sorafenib 10 mg/kg for 2 weeks, alone or with LDXGT)
  liver histopathology (H&E staining): marked focal inflammation, portal inflammation, focal hemorrhage and congestion, focal lytic necrosis and hepatocyte apoptosis, liver cell degeneration and disrupted intercellular cohesion
Rat liver [7]; single-dose groups, Groups D1–D4 (sorafenib 3 mg/kg i.v. or 10 mg/kg p.o., alone or after LDXGT)
  liver histopathology (H&E staining): focal inflammation, portal inflammation, focal hemorrhage and congestion, focal lytic necrosis and hepatocyte apoptosis
